Measurements taken from patent US6548550B1, “Pharmaceutical compositions containing N-palmitoylethanolamide and use thereof in the veterinary field” (Innovet Italia S.r.l., priority 2002, dated 2003).
Read-outs that look alike come from different tables or passages of the source.

Assays:
[1] = Particle size analysis of micronized PEA (Mastersizer); type: physicochemical
Experimental: The micronization of PEA and its co-micronization with excipients were performed with compressed-air turbine micronizing apparatus. This apparatus is known and is not therefore described in greater detail. The product obtained was subjected to analysis of the particles with Mastersizer, μ version apparatus from Malvern Instruments Co. UK.

[2] = tested on: eosinophilic skin condition in cats; conditions: for SIGNS plaque-granuloma-miliary scabs % improved / SIGNS plaque-granuloma-miliary scabs % unchanged / SIGNS plaque-granuloma-miliary scabs % worsened / SYMPTOMS pruritis-erythema-alopecia % improved / SYMPTOMS pruritis-erythema-alopecia % unchanged / SYMPTOMS pruritis-erythema-alopecia % worsened: cats
Experimental: Included in the investigation were 15 cats of European race with short hair, of which 9 were female and 6 were male, with ages of between 7 and 123 months. […] A numerical evaluation relating to the intensity and location of the signs and symptoms was assigned to each individual animal in accordance with the P.A.S.I. (psoriasis area severity index) “score” (Marks R. et al., 1989, Arch. Dermatol., 125:235-240). The improvements in the clinical signs and in the associated lesions were evaluated on the 15th and 30th days of treatment. The treatment consisted of a preparation in accordance with Example 3 of the pharmaceutical preparations given below, containing 120 mg of micronized N-palmitoylethanolamide. The active ingredient was administered in a proportion of 10 mg/kg/die for 30 days.

Row | Structure (SMILES) | quantity % of particles <6μ ([1]; particle size <6μ) | quantity % of particles <10μ ([1]; particle size <10μ) | quantity % of particles >14μ ([1]; particle size >14μ) | side effects compared with cortisones ([2]; in vivo) | SIGNS plaque-granuloma-miliary scabs % improved ([2]; T15 (15th day of treatment)) | SIGNS plaque-granuloma-miliary scabs % unchanged ([2]; T15 (15th day of treatment)) | SIGNS plaque-granuloma-miliary scabs % worsened ([2]; T15 (15th day of treatment)) | SYMPTOMS pruritis-erythema-alopecia % improved ([2]; T15 (15th day of treatment)) | SYMPTOMS pruritis-erythema-alopecia % unchanged ([2]; T15 (15th day of treatment)) | SYMPTOMS pruritis-erythema-alopecia % worsened ([2]; T15 (15th day of treatment)) | SIGNS plaque-granuloma-miliary scabs % improved ([2]; T30 (30th day of treatment)) | SIGNS plaque-granuloma-miliary scabs % unchanged ([2]; T30 (30th day of treatment)) | SIGNS plaque-granuloma-miliary scabs % worsened ([2]; T30 (30th day of treatment)) | SYMPTOMS pruritis-erythema-alopecia % improved ([2]; T30 (30th day of treatment)) | SYMPTOMS pruritis-erythema-alopecia % unchanged ([2]; T30 (30th day of treatment)) | SYMPTOMS pruritis-erythema-alopecia % worsened ([2]; T30 (30th day of treatment))
1 | CCCCCCCCCCCCCCCC(=O)NCCO [PEA, N-palmitoylethanolamide] | 80% | ~96% approx. | traces | does not have the serious side effects typical of these drugs | – | – | – | – | – | – | – | – | – | – | – | –
2 | CCCCCCCCCCCCCCCC(=O)NCCO [non-micronized PEA, N-palmitoylethanolamide] | – | – | – | – | 14.6% | 85.4% | 0% | 8.2% | 91.8% | 0% | 51.4% | 48.6% | 0% | 52% | 48% | 0%
